# Assay results as given in PubChem BioAssay (NCI).
#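 Results reflect a 48-hour exposure of cells in 96-well plates to compound at five concentrations. TGI denotes the concentration required for complete inhibition of growth.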
# Key:
# Experiment in all cases: DTP human tumour cell line panel, 48 h
# [1] = system: KM12 colon
# [2] = system: SF-268 CNS
# [3] = system: HOP-62 NSCLC
# [4] = system: HCT-116 colon
# [5] = system: MOLT-4 leukemia
# [6] = system: SK-MEL-2 melanoma
# [7] = system: NCI-H226 lung
# [8] = system: COLO 205 colon
# [9] = system: UACC-257 melanoma
# [10] = system: SK-MEL-28 melanoma
# [11] = system: IGROV1 ovarian
# [12] = system: RXF 393 renal
# [13] = system: UACC-62 melanoma
# [14] = system: K-562 leukemia
# [15] = system: KM20L2 colon
# [16] = system: SF-539 CNS
# [17] = system: HCC-2998 colon
# [18] = system: NCI-H522 lung
# [19] = system: A549 NSCLC
# [20] = system: M14 melanoma
# [21] = system: UO-31 renal
# [22] = system: LOX IMVI melanoma
# [23] = system: HT29 colon
# [24] = system: SK-OV-3 ovarian
# [25] = system: U251 CNS
# [26] = system: 786-0 renal
# [27] = system: SN12C renal
# [28] = system: SNB-75 CNS
# [29] = system: NCI-H23 lung
# [30] = system: CCRF-CEM leukemia
# [31] = system: SR leukemia
# [32] = system: OVCAR-5 ovarian
# [33] = system: DLD-1 colon
# [34] = system: SW-620 colon
# [35] = system: OVCAR-4 ovarian
# [36] = system: DMS 273 small cell lung
# [37] = system: SNB-19 CNS
# [38] = system: RPMI-8226 leukemia
# [39] = system: CAKI-1 renal
# [40] = system: OVCAR-8 ovarian
# [41] = system: MALME-3M melanoma
# [42] = system: DMS 114 small cell lung
# [43] = system: A498 renal
# [44] = system: ACHN renal
# [45] = system: SF-295 CNS
# [46] = system: LXFL 529 NSCLC
# [47] = system: HOP-18 NSCLC
# [48] = system: HCT-15 colon
# [49] = system: NCI-H460 lung
# [50] = system: OVCAR-3 ovarian
# [51] = system: SNB-78 CNS
# [52] = system: SK-MEL-5 melanoma
# [53] = system: EKVX NSCLC
# [54] = system: HL-60(TB) leukemia
# [55] = system: HOP-92 NSCLC
# [56] = system: XF 498 CNS
compound,measurement,setting,value
O=C(O)\C=C/C=C/C=C/C=C/C(=O)O,TGI,[1],> 100 µM
same,TGI,[2],> 100 µM
same,TGI,[3],> 100 µM
same,TGI,[4],> 100 µM
same,TGI,[5],> 100 µM
same,TGI,[6],> 100 µM
same,TGI,[7],> 100 µM
same,TGI,[8],> 100 µM
same,TGI,[9],> 100 µM
same,TGI,[10],> 100 µM
same,TGI,[11],> 100 µM
same,TGI,[12],> 100 µM
same,TGI,[13],> 100 µM
same,TGI,[14],> 100 µM
same,TGI,[15],> 100 µM
same,TGI,[16],> 100 µM
same,TGI,[17],> 100 µM
same,TGI,[18],> 100 µM
same,TGI,[19],> 100 µM
same,TGI,[20],> 100 µM
same,TGI,[21],> 100 µM
same,TGI,[22],> 100 µM
same,TGI,[23],> 100 µM
same,TGI,[24],> 100 µM
same,TGI,[25],> 100 µM
same,TGI,[26],> 100 µM
same,TGI,[27],> 100 µM
same,TGI,[28],> 100 µM
same,TGI,[29],> 100 µM
same,TGI,[30],> 100 µM
same,TGI,[31],> 100 µM
same,TGI,[32],> 100 µM
same,TGI,[33],> 100 µM
same,TGI,[34],> 100 µM
same,TGI,[35],> 100 µM
same,TGI,[36],> 100 µM
same,TGI,[37],> 100 µM
same,TGI,[38],> 100 µM
same,TGI,[39],> 100 µM
same,TGI,[40],> 100 µM
same,TGI,[41],> 100 µM
same,TGI,[42],> 100 µM
same,TGI,[43],> 100 µM
same,TGI,[44],> 100 µM
same,TGI,[45],> 100 µM
same,TGI,[46],> 100 µM
same,TGI,[47],> 100 µM
same,TGI,[48],> 100 µM
same,TGI,[49],> 100 µM
same,TGI,[50],> 100 µM
same,TGI,[51],> 100 µM
same,TGI,[52],> 100 µM
same,TGI,[53],> 100 µM
same,TGI,[54],> 100 µM
O=S(Cc1cnc2ccccc2c1)c1nc2ccccc2nc1-c1cccs1 (stereo not drawn),TGI,[2],39.6 µM
same,TGI,[4],22.4 µM
same,TGI,[5],> 100 µM
same,TGI,[7],11.6 µM
same,TGI,[8],42 µM
same,TGI,[9],31.2 µM
same,TGI,[10],34.9 µM
same,TGI,[11],33.4 µM
same,TGI,[14],> 100 µM
same,TGI,[16],32.8 µM
same,TGI,[19],48.6 µM
same,TGI,[20],32.2 µM
same,TGI,[21],28.3 µM
same,TGI,[23],37.1 µM
same,TGI,[24],73 µM
same,TGI,[25],33.5 µM
same,TGI,[26],27.3 µM
same,TGI,[27],32.8 µM
same,TGI,[28],39.3 µM
same,TGI,[29],35.7 µM
same,TGI,[30],> 100 µM
same,TGI,[32],28.5 µM
same,TGI,[35],24.6 µM
same,TGI,[36],34.9 µM
same,TGI,[37],43.6 µM
same,TGI,[55],25 µM
same,TGI,[38],> 100 µM
same,TGI,[40],51.7 µM
same,TGI,[41],37.7 µM
same,TGI,[56],16.9 µM
same,TGI,[42],25.8 µM
same,TGI,[44],26.4 µM
same,TGI,[45],61 µM
same,TGI,[46],20.8 µM
same,TGI,[47],31.7 µM
same,TGI,[50],34.7 µM
same,TGI,[51],50.7 µM
same,TGI,[53],25 µM
same,TGI,[54],72.8 µM
